Experimental data from patent EP1709964A2, “A method of cosmetic depigmentation care by applying at least one aurone” (ENGELHARD LYON, priority 2005, dated 2006).

target: T1, Human tyrosinase (Homo sapiens, UniProt P14679); assay: Inhibition of human tyrosinase in a monolayer after 24 h application of the actives on normal human melanocytes (MBTH/L-Dopa, OD 490 nm/protein); assay type: cell-based; details: 0.03%; model of Example 15
T1 construct: Normal human melanocytes (originating from abdominal plasty) are sown in a 24-well plate; endogenous in cells; host or cells: normal human melanocytes from abdominal plasty; donors of light, brown and black phototype
T1 sequence (P14679 19-529): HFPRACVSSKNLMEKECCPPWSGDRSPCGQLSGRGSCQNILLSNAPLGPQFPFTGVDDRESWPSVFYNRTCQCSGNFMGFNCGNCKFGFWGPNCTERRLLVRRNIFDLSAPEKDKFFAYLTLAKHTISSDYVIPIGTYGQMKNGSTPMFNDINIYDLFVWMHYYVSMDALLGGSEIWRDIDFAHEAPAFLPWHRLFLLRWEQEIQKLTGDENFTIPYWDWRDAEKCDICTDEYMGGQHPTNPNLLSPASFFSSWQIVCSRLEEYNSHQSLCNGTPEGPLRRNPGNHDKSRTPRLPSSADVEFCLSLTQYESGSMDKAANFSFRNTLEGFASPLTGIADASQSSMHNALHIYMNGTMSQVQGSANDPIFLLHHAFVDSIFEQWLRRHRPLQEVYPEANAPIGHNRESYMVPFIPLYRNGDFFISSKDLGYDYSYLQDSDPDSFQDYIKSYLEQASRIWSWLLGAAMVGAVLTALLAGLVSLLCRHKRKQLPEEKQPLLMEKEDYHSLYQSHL
Protocol: Normal human melanocytes (originating from abdominal plasty) are sown in a 24-well plate at the rate of 80,000 cells per well. They are cultivated up to confluence and the actives are applied for 24 hours in the culture media. After 24 hours, the media are removed and the melanocytes are picked up by mechanical action. An extraction is made by heat shock and the supernatants are then recovered and then incubated with MBTH (Sigma) and L-Dopa (Sigma).
The compound obtained in Example 9b was tested on melanocytes originating from various donors but of light phototypes according to the method described in Example 15. […] Table 6 : Inhibition of tyrosinase by compound 9b on 4 different donors.
The compound obtained in Example 9b is tested on cultures of melanocytes originating from 2 donors of brown phototypes and from one donor of negroid phototype. The method applied is that described in Example 15.
A study is made with molecules known in the literature for their depigmenting activity. These molecules are applied to the model described in Example 15 so as to compare their efficiency with respect to the aurones described above.

Compound | Inhibition (%)
O=C1O[C@H]([C@@H](O)CO)C(O)=C1O [VitC, Vitamin C, reference compound] | -5.68%

same assay, conditions: 0.3%; model of Example 15

Compound | Inhibition (%)
O=C1O[C@H]([C@@H](O)CO)C(O)=C1O [VitC, Vitamin C, reference compound] | 49.28%

same assay, conditions: 3%; model of Example 15

Compound | Inhibition (%)
O=C1O[C@H]([C@@H](O)CO)C(O)=C1O [VitC, Vitamin C, reference compound] | 97.77%

same assay, conditions: 10^-4M; 24 hours

Compound | Inhibition of human tyrosinase after application on normal human melanocytes, percentage inhibition
O=C1/C(=C/c2ccccc2)Oc2cc(O)cc(O)c21 [Example 7, (Z)-2-Benzylidene-(4,6-dihydroxy) benzofuran-3(2H)-one] | 3.37 ± 4.8%

same assay, conditions: 10^-4M; 24 hours; read-out: Inhibition of human tyrosinase after application on normal human melanocytes, percentage inhibition

Compound | inhibition at 100 µM
O=c1cc(-c2ccc(O)cc2)oc2cc(O)cc(O)c12 [Apigenin, reference compound] | -59.1 ± 23%
CCc1ccc(/C=C2\Oc3cc(O)ccc3C2=O)cc1 [Example 3a, (Z)-2-(4'-Ethyl)Benzylidene-6-Hydroxybenzofuran-3(2H)-one] | 0%
CCc1ccccc1/C=C1\Oc2cc(O)ccc2C1=O [Example 3b, (Z)-2-(2'-Ethyl)Benzylidene-6-Hydroxybenzofuran-3(2H)-one] | 0%
COc1cc(OC)c2c(c1)O/C(=C\c1ccc(S(=O)(=O)O)cc1)C2=O [Example 5e, (Z)-4,6-dimethoxy-2-(4'-sulfonatebenzylidene)benzofuran-3(2H)-one] | 0%
COc1cc(OC)c2c(c1)O/C(=C\c1ccc(S(=O)(=O)O)cc1S(=O)(=O)O)C2=O [Example 5f, (Z)-4,6-dimethoxy-2-(2',4'-disulfonatebenzylidene)benzofuran-3(2H)-one] | 9.36%
COc1cc(OC)c2c(c1)O/C(=C\c1ccco1)C2=O [Example 5m, (Z)-4,6-Dimethoxy-2-[(furan)methylene]benzofuran-3(2H)-one] | 19.5%
CCc1ccc(/C=C2\Oc3cc(OC)cc(OC)c3C2=O)o1 [Example 5n, (Z)-4,6-Dimethoxy-2-[(5-ethylfuran)methylene]benzofuran-3(2H)-one] | 7.8%
COc1cc(OC)c2c(c1)O/C(=C\c1cc(C)c(C)o1)C2=O [Example 5o, (Z)-4,6-Dimethoxy-2-[(4,5-dimethylfuran)methylene]benzofuran-3(2H)-one] | 23.2%
COc1cc(OC)c2c(c1)O/C(=C\c1cccs1)C2=O [Example 5p, (Z)-4,6-Dimethoxy-2-[(thiophene)methylene]benzofuran-3(2H)-one] | 31.3%
COc1cc(OC)c2c(c1)O/C(=C\c1ccc(C)s1)C2=O [Example 5q, (Z)-4,6-Dimethoxy-2-[(5-methylthiophene)methylene]benzofuran-3(2H)-one] | 4.8%
CCc1ccc(/C=C2\Oc3cc(OC)cc(OC)c3C2=O)s1 [Example 5r, (Z)-4,6-Dimethoxy-2-[(5-ethylthiophene)methylene]benzofuran-3(2H)-one] | 11.9%
COc1cc(OC)c2c(c1)O/C(=C\c1[nH]c(C)cc1C)C2=O [Example 5t, (Z)-4,6-Dimethoxy-2-[(3,5-dimethylpyrrole)methylene]benzofuran-3(2H)-one] | 5.1%
O=C1/C(=C/c2ccccc2)Oc2cc(O)cc(O)c21 [Example 7, (Z)-2-Benzylidene-(4,6-dihydroxy) benzofuran-3(2H)-one] | 3.37%
O=C1/C(=C/c2ccc(S(=O)(=O)O)cc2)Oc2cc(O)cc(O)c21 [Example 7e] | 0%
CCCc1ccc(/C=C2\Oc3cc(O)cc(O)c3C2=O)cc1 [Example 7h] | 5.43%
CC(C)c1ccc(/C=C2\Oc3cc(O)cc(O)c3C2=O)cc1 [Example 7i] | 0%
CC(C)(C)c1ccc(/C=C2\Oc3cc(O)cc(O)c3C2=O)cc1 [Example 7k] | 0%
CCc1ccccc1/C=C1\Oc2cc(O)cc(O)c2C1=O [Example 7l] | 0%
O=C1/C(=C/c2ccco2)Oc2cc(O)cc(O)c21 [Example 7m, (Z)-4,6-Dihydroxy-2-[(furan)methylene]benzofuran-3(2H)-one] | 23.6%
CCc1ccc(/C=C2\Oc3cc(O)cc(O)c3C2=O)o1 [Example 7n, (Z)-4,6-Dihydroxy-2-[(5-ethylfuran)methylene]benzofuran-3(2H)-one] | 28.5%
Cc1cc(/C=C2\Oc3cc(O)cc(O)c3C2=O)oc1C [Example 7o, (Z)-4,6-Dihydroxy-2-[(4,5-dimethylfuran)methylene]benzofuran-3(2H)-one] | 13.6%
O=C1/C(=C/c2cccs2)Oc2cc(O)cc(O)c21 [Example 7p, (Z)-4,6-Dihydroxy-2-[(thiophene)methylene]benzofuran-3(2H)-one] | 35.2%
Cc1ccc(/C=C2\Oc3cc(O)cc(O)c3C2=O)s1 [Example 7q, (Z)-4,6-Dihydroxy-2-[(5-methylthiophene)methylene]benzofuran-3(2H)-one] | 16.4%
CCc1ccc(/C=C2\Oc3cc(O)cc(O)c3C2=O)s1 [Example 7r, (Z)-4,6-Dihydroxy-2-[(5-ethylthiophene)methylene]benzofuran-3(2H)-one] | 13.8%
Cc1cc(C)c(/C=C2\Oc3cc(O)cc(O)c3C2=O)[nH]1 [Example 7t, (Z)-4,6-Dihydroxy-2-[(3,5-dimethylpyrrole)methylene]benzofuran-3(2H)-one] | 26.4%
COc1ccc(/C=C2\Oc3cc(O)cc(O)c3C2=O)cc1 [Example 9, (Z)-4,6-Dihydroxy-2-(4-methoxybenzylidene)benzofuran-3(2H)-one] | 10.7%
CCOc1ccc(/C=C2\Oc3cc(O)cc(O)c3C2=O)cc1 [Example 9a, (Z)-4,6-Dihydroxy-2-(4'-ethoxybenzylidene)benzofuran-3(2H)-one] | 5.25%
O=C1/C(=C/c2ccccc2O)Oc2cc(O)cc(O)c21 [Example 9c] | 12.8%
COc1cc(/C=C2\Oc3cc(O)cc(O)c3C2=O)ccc1O [Example 9d] | 3.92%

same assay, conditions: 10^-5M; 24 hours

Compound | Inhibition of human tyrosinase after application on normal human melanocytes, percentage inhibition
O=C1/C(=C/c2ccccc2)Oc2cc(O)cc(O)c21 [Example 7, (Z)-2-Benzylidene-(4,6-dihydroxy) benzofuran-3(2H)-one] | 34.85 ± 3.04%

same assay, conditions: 10^-5M; 24 hours; read-out: Inhibition of human tyrosinase after application on normal human melanocytes, percentage inhibition

Compound | inhibition at 10 µM
O=c1cc(-c2ccc(O)cc2)oc2cc(O)cc(O)c12 [Apigenin, reference compound] | -40.8 ± 7.68%
O=c1cc(-c2ccccc2)oc2cc(O)cc(O)c12 [Chrysin, reference compound] | -6.1 ± 22.9%
CCc1ccc(/C=C2\Oc3cc(O)ccc3C2=O)cc1 [Example 3a, (Z)-2-(4'-Ethyl)Benzylidene-6-Hydroxybenzofuran-3(2H)-one] | 23.9%
CCc1ccccc1/C=C1\Oc2cc(O)ccc2C1=O [Example 3b, (Z)-2-(2'-Ethyl)Benzylidene-6-Hydroxybenzofuran-3(2H)-one] | 0%
COc1cc(OC)c2c(c1)O/C(=C\c1ccc(S(=O)(=O)O)cc1)C2=O [Example 5e, (Z)-4,6-dimethoxy-2-(4'-sulfonatebenzylidene)benzofuran-3(2H)-one] | 1.44%
COc1cc(OC)c2c(c1)O/C(=C\c1ccc(S(=O)(=O)O)cc1S(=O)(=O)O)C2=O [Example 5f, (Z)-4,6-dimethoxy-2-(2',4'-disulfonatebenzylidene)benzofuran-3(2H)-one] | 2.88%
COc1cc(OC)c2c(c1)O/C(=C\c1ccco1)C2=O [Example 5m, (Z)-4,6-Dimethoxy-2-[(furan)methylene]benzofuran-3(2H)-one] | 6.4%
CCc1ccc(/C=C2\Oc3cc(OC)cc(OC)c3C2=O)o1 [Example 5n, (Z)-4,6-Dimethoxy-2-[(5-ethylfuran)methylene]benzofuran-3(2H)-one] | 0%
COc1cc(OC)c2c(c1)O/C(=C\c1cc(C)c(C)o1)C2=O [Example 5o, (Z)-4,6-Dimethoxy-2-[(4,5-dimethylfuran)methylene]benzofuran-3(2H)-one] | 12.1%
COc1cc(OC)c2c(c1)O/C(=C\c1cccs1)C2=O [Example 5p, (Z)-4,6-Dimethoxy-2-[(thiophene)methylene]benzofuran-3(2H)-one] | 6.4%
COc1cc(OC)c2c(c1)O/C(=C\c1ccc(C)s1)C2=O [Example 5q, (Z)-4,6-Dimethoxy-2-[(5-methylthiophene)methylene]benzofuran-3(2H)-one] | 0%
CCc1ccc(/C=C2\Oc3cc(OC)cc(OC)c3C2=O)s1 [Example 5r, (Z)-4,6-Dimethoxy-2-[(5-ethylthiophene)methylene]benzofuran-3(2H)-one] | 2.1%
COc1cc(OC)c2c(c1)O/C(=C\c1[nH]c(C)cc1C)C2=O [Example 5t, (Z)-4,6-Dimethoxy-2-[(3,5-dimethylpyrrole)methylene]benzofuran-3(2H)-one] | 0%
O=C1/C(=C/c2ccccc2)Oc2cc(O)cc(O)c21 [Example 7, (Z)-2-Benzylidene-(4,6-dihydroxy) benzofuran-3(2H)-one] | 34.9%
O=C1/C(=C/c2ccc(S(=O)(=O)O)cc2)Oc2cc(O)cc(O)c21 [Example 7e] | 4.83%
CCCc1ccc(/C=C2\Oc3cc(O)cc(O)c3C2=O)cc1 [Example 7h] | 26.9%
CC(C)c1ccc(/C=C2\Oc3cc(O)cc(O)c3C2=O)cc1 [Example 7i] | 31.9%
CC(C)(C)c1ccc(/C=C2\Oc3cc(O)cc(O)c3C2=O)cc1 [Example 7k] | 25.1%
CCc1ccccc1/C=C1\Oc2cc(O)cc(O)c2C1=O [Example 7l] | 6.1%
O=C1/C(=C/c2ccco2)Oc2cc(O)cc(O)c21 [Example 7m, (Z)-4,6-Dihydroxy-2-[(furan)methylene]benzofuran-3(2H)-one] | 6.4%
CCc1ccc(/C=C2\Oc3cc(O)cc(O)c3C2=O)o1 [Example 7n, (Z)-4,6-Dihydroxy-2-[(5-ethylfuran)methylene]benzofuran-3(2H)-one] | 13.4%
Cc1cc(/C=C2\Oc3cc(O)cc(O)c3C2=O)oc1C [Example 7o, (Z)-4,6-Dihydroxy-2-[(4,5-dimethylfuran)methylene]benzofuran-3(2H)-one] | 4.5%
O=C1/C(=C/c2cccs2)Oc2cc(O)cc(O)c21 [Example 7p, (Z)-4,6-Dihydroxy-2-[(thiophene)methylene]benzofuran-3(2H)-one] | 15.3%
Cc1ccc(/C=C2\Oc3cc(O)cc(O)c3C2=O)s1 [Example 7q, (Z)-4,6-Dihydroxy-2-[(5-methylthiophene)methylene]benzofuran-3(2H)-one] | 7%
CCc1ccc(/C=C2\Oc3cc(O)cc(O)c3C2=O)s1 [Example 7r, (Z)-4,6-Dihydroxy-2-[(5-ethylthiophene)methylene]benzofuran-3(2H)-one] | 0%
Cc1cc(C)c(/C=C2\Oc3cc(O)cc(O)c3C2=O)[nH]1 [Example 7t, (Z)-4,6-Dihydroxy-2-[(3,5-dimethylpyrrole)methylene]benzofuran-3(2H)-one] | 0%
COc1ccc(/C=C2\Oc3cc(O)cc(O)c3C2=O)cc1 [Example 9, (Z)-4,6-Dihydroxy-2-(4-methoxybenzylidene)benzofuran-3(2H)-one] | 14.1%
CCOc1ccc(/C=C2\Oc3cc(O)cc(O)c3C2=O)cc1 [Example 9a, (Z)-4,6-Dihydroxy-2-(4'-ethoxybenzylidene)benzofuran-3(2H)-one] | 19.9%
O=C1/C(=C/c2ccccc2O)Oc2cc(O)cc(O)c21 [Example 9c] | 4.32%
COc1cc(/C=C2\Oc3cc(O)cc(O)c3C2=O)ccc1O [Example 9d] | 20.2%

same assay, conditions: read-out: Inhibition of human tyrosinase after application on normal human melanocytes, percentage inhibition

Compound | inhibition at 10 µM | inhibition at 100 µM
COc1cc(OC)c2c(c1)O/C(=C\c1ccc[nH]1)C2=O [Example 5s, (Z)-4,6-Dimethoxy-2-[(pyrrole)methylene]benzofuran-3(2H)-one] | 0% | 13.7%
O=C1/C(=C/c2ccc[nH]2)Oc2cc(O)cc(O)c21 [Example 7s, (Z)-4,6-Dihydroxy-2-[(pyrrole)methylene]benzofuran-3(2H)-one] | 9.1% | 22.8%
